Measurements from patent publication US8084457B2, “Pharmaceutically active 4,6-disubstituted aminopyrimidine derivatives as modulators of protein kinases” (Lead Discovery Center GmbH, priority 2003, dated 2011).
pIC50: −log10 of the molar value.

Assays:
Format in all cases: biochemical
CDK2/CyclinA = molecular target: T1, CDK2/CyclinA (Homo sapiens, UniProt P24941); experiment: Kinase assay determining CDK2/CyclinA activity; details: read-out: CDK2 (activity range)
T1 construct: purchased Proqinase
Experimental: Kinase Assays Determining CDK2/CyclinA and CDK5/p35 Activity:
Kinase assays were performed as described by the manufacturers recommendations (Proqinase for CDK2/CyclinA and Upsate for CDK5/p35).

CDK4 = CDK4 (Homo sapiens, UniProt P11802); experiment: Kinase assay, CDK4 activity range (Table 2)
CDK9/Cyclin T1 = molecular target: T2, CDK9/Cyclin T1 (Homo sapiens, UniProt P50750); experiment: Kinase assay using CDK9/Cyclin T1; details: read-out: CDK9 (activity range)
T2 construct: made in house; host or cells: HEK293 cells, recombinant adenovirus
How it was run: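 Recombinant CDK9/Cyclin T1 produced via adenoviral expression from gateway-cloned cDNAs. Kinase reaction run essentially per a published protocol.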

T2 sequence (P50750 whole entry): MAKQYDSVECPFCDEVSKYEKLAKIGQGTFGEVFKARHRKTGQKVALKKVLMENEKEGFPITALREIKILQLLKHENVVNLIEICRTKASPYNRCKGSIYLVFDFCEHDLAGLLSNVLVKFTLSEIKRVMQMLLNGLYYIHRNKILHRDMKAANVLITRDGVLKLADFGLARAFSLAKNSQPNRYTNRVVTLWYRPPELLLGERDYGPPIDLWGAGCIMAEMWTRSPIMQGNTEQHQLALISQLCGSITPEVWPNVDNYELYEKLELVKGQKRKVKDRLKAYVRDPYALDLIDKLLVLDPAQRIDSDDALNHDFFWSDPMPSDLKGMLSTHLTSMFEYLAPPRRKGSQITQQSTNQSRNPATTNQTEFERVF
T2 sequence (O60563 whole entry partner): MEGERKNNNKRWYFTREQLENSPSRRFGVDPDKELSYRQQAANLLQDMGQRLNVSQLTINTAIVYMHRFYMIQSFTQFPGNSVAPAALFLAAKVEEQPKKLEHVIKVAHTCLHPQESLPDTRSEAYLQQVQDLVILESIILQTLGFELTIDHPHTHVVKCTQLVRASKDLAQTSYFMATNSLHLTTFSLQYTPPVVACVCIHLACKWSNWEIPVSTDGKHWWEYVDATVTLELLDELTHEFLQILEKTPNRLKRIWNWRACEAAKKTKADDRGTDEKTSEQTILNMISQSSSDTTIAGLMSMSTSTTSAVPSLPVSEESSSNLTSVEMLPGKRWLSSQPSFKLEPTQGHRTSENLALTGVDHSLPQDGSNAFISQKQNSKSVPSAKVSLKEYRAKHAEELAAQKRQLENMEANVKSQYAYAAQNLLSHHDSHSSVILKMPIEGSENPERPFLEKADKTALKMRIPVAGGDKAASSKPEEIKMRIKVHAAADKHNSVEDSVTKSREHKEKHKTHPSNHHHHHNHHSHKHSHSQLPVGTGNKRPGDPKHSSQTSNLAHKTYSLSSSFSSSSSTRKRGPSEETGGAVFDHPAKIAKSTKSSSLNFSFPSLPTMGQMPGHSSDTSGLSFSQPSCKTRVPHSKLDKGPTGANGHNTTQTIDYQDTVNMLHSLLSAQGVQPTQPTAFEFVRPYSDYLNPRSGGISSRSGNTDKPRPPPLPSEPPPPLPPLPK
CDK4, sequence (P11802 whole entry, species assumed): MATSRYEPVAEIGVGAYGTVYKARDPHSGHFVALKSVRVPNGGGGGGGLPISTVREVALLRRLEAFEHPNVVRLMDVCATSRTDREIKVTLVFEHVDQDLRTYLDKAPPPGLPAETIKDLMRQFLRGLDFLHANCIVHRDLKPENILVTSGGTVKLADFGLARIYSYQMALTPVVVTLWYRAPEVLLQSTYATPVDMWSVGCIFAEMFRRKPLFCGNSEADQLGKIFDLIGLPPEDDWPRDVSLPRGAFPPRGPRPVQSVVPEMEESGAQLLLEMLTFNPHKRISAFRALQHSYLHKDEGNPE
CDK4, sequence (P24385 whole entry partner, species assumed): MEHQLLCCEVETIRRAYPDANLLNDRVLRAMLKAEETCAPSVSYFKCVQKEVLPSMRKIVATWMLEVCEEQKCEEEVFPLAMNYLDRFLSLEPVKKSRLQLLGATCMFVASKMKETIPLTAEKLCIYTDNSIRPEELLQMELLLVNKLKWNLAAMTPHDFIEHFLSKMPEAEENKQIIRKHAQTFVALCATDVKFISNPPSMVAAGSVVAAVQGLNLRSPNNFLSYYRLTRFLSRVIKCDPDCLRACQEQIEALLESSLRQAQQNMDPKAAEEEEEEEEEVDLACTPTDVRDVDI

| SMILES | pIC50 (CDK2/CyclinA) | pIC50 (CDK4) | pIC50 (CDK9/Cyclin T1) |
| --- | --- | --- | --- |
| COc1ccccc1-c1cc(Nc2ccc(C(=O)N3CCOCC3)cc2)ncn1 [(147)] |  | 5.00 to 6.00 | 5.00 to 6.00 |
| Cc1ccc(Nc2cc(-c3cccc(C(F)(F)F)c3)ncn2)cc1NS(C)(=O)=O [(107)] | 3.60 to 5.00 | 3.60 to 5.00 | 3.60 to 5.00 |
| COc1ccccc1-c1cc(Nc2ccc(NC(=O)[C@@H]3CCCCN3)cc2)ncn1 [(30)] | 5.00 to 6.00 | 6.00 to 9.00 | 6.00 to 9.00 |
| O=C(Nc1ccc(Nc2cc(-c3ccccc3OC(F)(F)F)ncn2)cc1)[C@@H]1CCCCN1 [(190)] |  | 5.00 to 6.00 | 5.00 to 6.00 |
| Cc1ccc(Nc2cc(-c3cccc(O)c3)ncn2)cc1NS(C)(=O)=O [(105)] | 6.00 to 9.00 | 3.60 to 5.00 | 6.00 to 9.00 |
| COC(=O)c1ccc(Nc2cc(-c3ccccc3OC)ncn2)cc1 [(15)] | 6.00 to 9.00 |  | 6.00 to 9.00 |
| COc1ccccc1-c1cc(Nc2ccc(NC(=O)Cc3ccccc3)cc2)ncn1 [(71)] | 5.00 to 6.00 |  | 6.00 to 9.00 |
| COc1ccccc1-c1cc(Nc2ccc(NC(=O)C34CC5CC(CC(C5)C3)C4)cc2)ncn1 [(61)] | 3.60 to 5.00 |  | 5.00 to 6.00 |
| COc1ccc(OC)c(-c2cc(Nc3ccc(NC(=O)c4ccc(N)cc4)cc3)ncn2)c1 [(57)] | 3.60 to 5.00 |  | 3.60 to 5.00 |
| COc1ccc(-c2cc(Nc3cccc(S(N)(=O)=O)c3)ncn2)cc1 [Compound 215] | 6.00 to 9.00 |  | 6.00 to 9.00 |
| COc1ccccc1-c1cc(Nc2ccc(NS(=O)(=O)C(C)C)cc2)ncn1 [(153)] | 6.00 to 9.00 |  | 6.00 to 9.00 |
| COc1ccc(Cl)cc1-c1cc(Nc2ccc(NC(=O)c3ccc(N)cc3)cc2)ncn1 [(39)] | 3.60 to 5.00 |  | 5.00 to 6.00 |
| CS(=O)(=O)Nc1cccc(-c2cc(Nc3ccc(C(=O)N[C@@H]4CCCC[C@H]4N)cc3)ncn2)c1 (racemic) [(195)] | 5.00 to 6.00 |  | 6.00 to 9.00 |
| C=Cc1ccccc1-c1cc(Nc2ccc(NC(=O)C(C)(C)C)cc2)ncn1 [(126)] | 3.60 to 5.00 |  | 5.00 to 6.00 |
| Cc1ccc(S(=O)(=O)Nc2ccc(Nc3cc(-c4ccc(CCC(=O)O)cc4)ncn3)cc2)cc1 [(17)] | 3.60 to 5.00 |  | 3.60 to 5.00 |
| COc1ccccc1-c1cc(Nc2ccc(NC(=O)c3ccc(C(C)(C)C)cc3)cc2)ncn1 [(45)] | 3.60 to 5.00 |  | 5.00 to 6.00 |
| COc1ccccc1-c1cc(Nc2ccc(NC(=O)c3ccc(N)cc3)cc2)ncn1 [(8)] | 5.00 to 6.00 |  | 6.00 to 9.00 |
| COc1ccccc1-c1cc(Nc2ccc(C(=O)Nc3ccc(C(C)C)cc3)cc2)ncn1 [(137)] | 3.60 to 5.00 |  | 5.00 to 6.00 |

| SMILES | pIC50 (CDK2/CyclinA) | pIC50 (CDK4) | pIC50 (CDK9/Cyclin T1) |
| --- | --- | --- | --- |
| Nc1ccc(C(=O)Nc2ccc(Nc3cc(-c4cccc(N)c4)ncn3)cc2)cc1 [(21)] | 5.00 to 6.00 |  | 5.00 to 6.00 |
| COc1ccccc1-c1cc(Nc2ccc(NC(=N)N)cc2)ncn1 [(53)] | 5.00 to 6.00 |  | 5.00 to 6.00 |
| Nc1ccc(C(=O)Nc2ccc(Nc3cc(NCCO)ncn3)cc2)cc1 [(60)] | 3.60 to 5.00 |  | 5.00 to 6.00 |
| O=Cc1cccc(-c2cc(Nc3ccc(NC(=O)[C@@H]4CCCCN4)cc3)ncn2)c1 [(168)] |  | 5.00 to 6.00 | 5.00 to 6.00 |
| COc1ccccc1-c1cc(Nc2ccc(NC(=O)C(C)(C)C)cc2)ncn1 [(19)] | 5.00 to 6.00 |  | 6.00 to 9.00 |
| COc1ccccc1-c1cc(Nc2ccc(NC(=O)c3ccc(N4CCN(C)CC4)cc3)cc2)ncn1 [(49)] | 5.00 to 6.00 |  | 6.00 to 9.00 |
| COc1ccccc1-c1ncnc(Nc2ccc(N)cc2)c1C [(152)] | 3.60 to 5.00 |  | 3.60 to 5.00 |
| COc1cccc(OC)c1-c1cc(Nc2ccc(NC(=O)c3ccc(N)cc3)cc2)ncn1 [(51)] | 3.60 to 5.00 |  | 5.00 to 6.00 |
| CCCCNS(=O)(=O)c1cccc(Nc2cc(-c3ccccc3OC)ncn2)c1 [(184)] | 5.00 to 6.00 |  | 6.00 to 9.00 |
| CC(C)(C)C(=O)Nc1ccc(Nc2cc(-c3ccccc3OCc3ccccc3)ncn2)cc1 [(85)] | 5.00 to 6.00 |  | 6.00 to 9.00 |
| COc1ccccc1-c1cc(Nc2ccc(NC(=O)C(N)c3ccc4ccccc4c3)cc2)ncn1 (stereo not shown) [(146)] | 5.00 to 6.00 |  | 6.00 to 9.00 |
| Cc1ccc(Nc2cc(-c3cccc(N)c3)ncn2)cc1NS(=O)(=O)c1cccc2cccnc12 [(142)] | 3.60 to 5.00 |  | 6.00 to 9.00 |
| Nc1ccc(C(=O)Nc2ccc(Nc3cc(-c4ccncc4)ncn3)cc2)cc1 [(67)] | 3.60 to 5.00 |  | 3.60 to 5.00 |
| COc1ccc(-c2cc(Nc3ccc(NS(=O)(=O)c4ccc(C)cc4)cc3)ncn2)cc1 [(1)] | 5.00 to 6.00 |  | 3.60 to 5.00 |
| COc1ccccc1-c1cc(Nc2ccc(NC(=O)C3CCCCC3)cc2)ncn1 [(41)] | 3.60 to 5.00 |  | 5.00 to 6.00 |
| CCCS(=O)(=O)Nc1cc(Nc2cc(-c3cccc(N)c3)ncn2)ccc1C [(116)] | 6.00 to 9.00 |  | 6.00 to 9.00 |
| COc1ccccc1-c1cc(Nc2ccc(C(=O)Nc3ccc(O)cc3)cc2)ncn1 [(136)] | 5.00 to 6.00 |  | 6.00 to 9.00 |
| Cc1ccc(Nc2cc(-c3cccc(C=O)c3)ncn2)cc1NS(C)(=O)=O [(165)] | 5.00 to 6.00 |  | 5.00 to 6.00 |

The remaining lines, values ahead:

| pIC50 (CDK2/CyclinA) | pIC50 (CDK4) | pIC50 (CDK9/Cyclin T1) | SMILES |
| --- | --- | --- | --- |
| 5.00 to 6.00 | 5.00 to 6.00 | 6.00 to 9.00 | CC(C)Oc1ccccc1-c1cc(Nc2ccc(C(=O)N[C@@H]3CCCC[C@H]3N)cc2)ncn1 (racemic) [(199)] |
| 6.00 to 9.00 | 5.00 to 6.00 | 6.00 to 9.00 | COc1ccccc1-c1cc(Nc2cccc(N)c2)ncn1 [(124)] |
| 5.00 to 6.00 | 5.00 to 6.00 | 6.00 to 9.00 | COc1ccccc1-c1cc(Nc2ccc(NC(=O)C3CCN(C)CC3)cc2)ncn1 [(89)] |
| 6.00 to 9.00 | 6.00 to 9.00 | 6.00 to 9.00 | COc1ccccc1-c1cc(Nc2ccc(N3CCCC3=O)cc2)ncn1 [(9)] |
| 5.00 to 6.00 | 5.00 to 6.00 | 6.00 to 9.00 | COc1ccccc1-c1cc(Nc2ccc(C(=O)N[C@@H]3CCCC[C@H]3N)cc2)ncn1 (racemic) [(83)] |
| 6.00 to 9.00 | 3.60 to 5.00 | 6.00 to 9.00 | COc1ccccc1-c1cc(Nc2cccc(S(N)(=O)=O)c2)ncn1 [(150)] |
| 6.00 to 9.00 | 5.00 to 6.00 | 6.00 to 9.00 | COc1ccccc1-c1cc(Nc2ccc(NS(C)(=O)=O)cc2)ncn1 [(33)] |
| 5.00 to 6.00 | 5.00 to 6.00 | 6.00 to 9.00 | COc1ccccc1-c1cc(Nc2ccc(NC(=O)[C@@H](N)C(C)C)cc2)ncn1 [(143)] |
| 5.00 to 6.00 | 6.00 to 9.00 | 6.00 to 9.00 | CSc1ccccc1-c1cc(Nc2ccc(NC(=O)[C@@H]3CCCCN3)cc2)ncn1 [(189)] |
| 6.00 to 9.00 | 5.00 to 6.00 | 6.00 to 9.00 | COc1ccccc1-c1cc(Nc2ccc(N)cc2)ncn1 [(22)] |
| 5.00 to 6.00 | 6.00 to 9.00 | 6.00 to 9.00 | COc1ccc(-c2cc(Nc3ccc(NC(=O)[C@@H]4CCCCN4)cc3)ncn2)c(OC)c1 [(187)] |
| 5.00 to 6.00 | 6.00 to 9.00 | 6.00 to 9.00 | COc1ccccc1-c1cc(Nc2ccc(NC(=O)CCN)cc2)ncn1 [(102)] |
| 6.00 to 9.00 | 5.00 to 6.00 | 6.00 to 9.00 | NC(=O)c1ccc(Nc2cc(-c3ccccc3OCc3ccccc3)ncn2)cc1 [(95)] |
| 5.00 to 6.00 | 5.00 to 6.00 | 6.00 to 9.00 | CN[C@H](C(=O)Nc1ccc(Nc2cc(-c3ccccc3OC)ncn2)cc1)c1ccccc1 [(82)] |
| 5.00 to 6.00 | 6.00 to 9.00 | 6.00 to 9.00 | COc1ccccc1-c1cc(Nc2ccc(NC(=O)[C@H]3CCCCN3)cc2)ncn1 [(69)] |
| 5.00 to 6.00 | 5.00 to 6.00 | 6.00 to 9.00 | CC[C@H](C)[C@H](N)C(=O)Nc1ccc(Nc2cc(-c3ccccc3OC)ncn2)cc1 [(140)] |
| 6.00 to 9.00 | 3.60 to 5.00 | 6.00 to 9.00 | COc1ccccc1-c1cc(Nc2ccc(C(N)=O)cc2)ncn1 [(14)] |
| 5.00 to 6.00 | 6.00 to 9.00 | 6.00 to 9.00 | COc1ccccc1-c1cc(Nc2ccc(NC(=O)CC3CCCCN3)cc2)ncn1 (stereo not shown) [(59)] |
| 5.00 to 6.00 | 5.00 to 6.00 | 6.00 to 9.00 | COc1ccccc1-c1cc(Nc2ccc(NC(=O)[C@@H](N)c3ccccc3)cc2)ncn1 [(81)] |
| 5.00 to 6.00 | 6.00 to 9.00 | 6.00 to 9.00 | CNC(C)(C)C(=O)Nc1ccc(Nc2cc(-c3ccccc3OC)ncn2)cc1 [(118)] |
| 5.00 to 6.00 | 5.00 to 6.00 | 6.00 to 9.00 | COc1ncccc1-c1cc(Nc2ccc(NC(=O)[C@@H]3CCCCN3)cc2)ncn1 [(171)] |
| 5.00 to 6.00 | 5.00 to 6.00 | 6.00 to 9.00 | COc1ccccc1-c1cc(Nc2ccc(NC(=O)C3CCCN(C)C3)cc2)ncn1 (stereo not shown) [(87)] |
| 5.00 to 6.00 | 3.60 to 5.00 | 6.00 to 9.00 | COc1ccccc1-c1cc(Nc2ccc(NC(=O)[C@@H]3Cc4ccccc4CN3)cc2)ncn1 [(65)] |
| 6.00 to 9.00 | 5.00 to 6.00 | 6.00 to 9.00 | COc1ccccc1-c1cc(Nc2ccc(NC(C)=O)cc2)ncn1 [(10)] |
| 6.00 to 9.00 | 5.00 to 6.00 | 6.00 to 9.00 | COc1ccccc1-c1cc(Nc2cccc(NC(=O)[C@@H]3CCCCN3)c2)ncn1 [(128)] |
| 5.00 to 6.00 | 5.00 to 6.00 | 6.00 to 9.00 | CCN(CC)CCC(=O)Nc1ccc(Nc2cc(-c3ccccc3OC)ncn2)cc1 [(64)] |
| 6.00 to 9.00 | 6.00 to 9.00 | 6.00 to 9.00 | NC1CCCCC1NC(=O)c1ccc(Nc2cc(-c3ccccc3OCc3ccccc3)ncn2)cc1 (stereo not shown) [(198)] |
| 5.00 to 6.00 | 5.00 to 6.00 | 6.00 to 9.00 | COc1ccccc1-c1cc(Nc2ccc(NC(=O)CN(C)C)cc2)ncn1 [(46)] |
| 5.00 to 6.00 |  | 6.00 to 9.00 | COc1ccccc1-c1cc(Nc2ccc(C(=O)NC3CCCCC3N)cc2)ncn1 (stereo not shown) [(148)] |
| 6.00 to 9.00 |  | 6.00 to 9.00 | CCCS(=O)(=O)Nc1ccc(Nc2cc(-c3ccccc3OC)ncn2)cc1 [(154)] |
